Columns and labels:
[1] = test system: Human Bladder cancer cell, T24; assay: Relative cell viability, T24 (CCK-8); type: cell-based; conditions: 48 hours
Method: Human-derived breast cancer cell line MCF-7, human-derived lung cancer cell line A549, human-derived colorectal cancer cell line HCT-116, human pancreatic cancer cell line AsPC-1, glioblastoma cell line A172, and melanoma cell line Malme-3M were obtained from the Korean Cell Bank. gastric cancer cell line SNU-719, and bladder cancer cell line T24 were cultured in RPMI-1640 medium containing 10% FBS.
(§1) Following stabilization, the cells were harvested using Trypsin-EDTA treatment, centrifuged at 1,200 rpm for 3 minutes, the supernatant was removed, and the cells were resuspended in the same medium. They were then seeded into a 96-well plate (Costar 96-well cell culture plate, Corning) at 100 μL per well, and the conditions were adjusted as indicated in Table 5.
The cells were cultured in a 5% CO2 incubator at 37° C. for 24 hours, and after stabilization of the cells, each plate was washed with 200 μL of PBS per well and treated with 50 μL of culture medium per well. […]
(§2) After that, 10 μL of CCK-8 was added to each well, and the plate was incubated again at 37° C. in a 5% CO2 incubator for 2 hours.
(§3) In other words, when the survival rate of untreated cells (DMSO) is set at 100%, the relative cell survival rate in each group treated with the drug at different concentrations is indicated.

[2] = test system: Human Head and Neck cancer, Fadu; assay: Relative cell viability, Fadu (CCK-8); type: cell-based; conditions: relative to untreated cells
Method: Human-derived head and neck cancer cell line Fadu and osteosarcoma cell line Saos-2 were cultured in MEM medium containing 10% FBS, 100 U/mL penicillin, and 100 μg/mL streptomycin.
as §1
The cells were cultured in a 5% CO2 incubator at 37° C. for 24 hours, and after stabilization of the cells, each plate was washed with 200 μL of PBS per well and treated with 50 μL of culture medium per well.
as §2, §3

[3] = target: T1, full-length PDK1 (PDK1-FL) (Homo sapiens, UniProt O15530); assay: Binding affinity by Microscale Thermophoresis (MST), full-length PDK1; conditions: Kd full-length vs PKD fragment
T1 construct: the full-length (PDK1-FL) protein of human-derived PDK1; His tag (inferred by me from the Ni-NTA purification); made in house; host or cells: Sf9 insect cells, baculovirus
T1 sequence (O15530 1-556): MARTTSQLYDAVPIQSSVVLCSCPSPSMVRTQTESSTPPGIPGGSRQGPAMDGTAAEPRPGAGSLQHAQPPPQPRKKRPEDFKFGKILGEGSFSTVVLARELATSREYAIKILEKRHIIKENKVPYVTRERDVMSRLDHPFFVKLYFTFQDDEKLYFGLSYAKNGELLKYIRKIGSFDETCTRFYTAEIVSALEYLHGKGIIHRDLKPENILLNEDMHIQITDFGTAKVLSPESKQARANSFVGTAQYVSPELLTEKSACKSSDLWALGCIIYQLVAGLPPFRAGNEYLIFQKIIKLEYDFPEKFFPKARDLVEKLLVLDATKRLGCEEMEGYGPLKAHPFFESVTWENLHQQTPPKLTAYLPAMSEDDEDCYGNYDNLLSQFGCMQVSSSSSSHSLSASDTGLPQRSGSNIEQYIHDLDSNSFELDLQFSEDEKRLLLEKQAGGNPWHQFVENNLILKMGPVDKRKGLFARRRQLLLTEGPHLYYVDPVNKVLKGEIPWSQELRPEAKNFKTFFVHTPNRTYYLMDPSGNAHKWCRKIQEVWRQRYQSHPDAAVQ
Method: Microscale Thermophoresis (MST) analysis was performed to quantitatively measure the binding affinity between PDK1 protein and substrate peptides (PDKTide) or the company-developed low-molecular-weight compound (GO88).
The target proteins were the full-length (PDK1-FL) protein of human-derived PDK1 and the Protein Kinase Domain (PKD) fragment, which were expressed using a baculovirus expression system in insect cell lines (Sf9).
The purity of the purified proteins was confirmed by SDS-PAGE and Coomassie Brilliant Blue staining.
The purified protein was labeled with a fluorescent label using the Monolith NT™ RED-NHS Protein Fluorescent Labeling Kit (NanoTemper).
Specifically, 20 µM of the protein was dissolved in PBS (pH 7.4) buffer, mixed with the fluorescent reagent, and reacted at room temperature under dark conditions for 30 minutes. The mixture was then buffered with MST analysis buffer (50 mM HEPES, 150 mM NaCl, 1 mM DTT, 0.05% Tween-20, pH 7.5). […]
The reaction samples were injected into an MST-specific capillary (NanoTemper) and analyzed using a Monolith NT.115 device (NanoTemper) under laser intensity conditions. […]
The measured data were analyzed using MO. Affinity Analysis software (NanoTemper), and the dissociation constant (Kd) was calculated from the binding curve.

Row | Compound | Relative cell viability (%) ([1]; T24, 1 μM) | Relative cell viability (%) ([1]; T24, 10 μM) | Relative cell viability (%) ([1]; T24, 30 μM) | Relative cell viability (%) ([1]; T24, 50 μM) | Relative cell viability (%) ([2]; concentration 1 μM) | Relative cell viability (%) ([2]; concentration 10 μM) | Relative cell viability (%) ([2]; concentration 30 μM) | Relative cell viability (%) ([2]; concentration 50 μM) | binding affinity of full-length PDK1 compared to the PDK fragment [3]
1 | 12-[4-(2,2-dimethylmorpholin-4-yl)]dodecyl-N-(6-aminopurine-2-yl) carboxamide [Compound 11] | 28.15% | 31.17% | 30.42% | 29.34% | 2.08% | 9.68% | 8.51% | 4.78% | –
2 | Nc1ncccc1C(=O)NCCCCCCCCCCCCN1CCNCC1 [Compound 14, 2-Amino-N-(12-(piperazin-1-yl)dodecyl)nicotinamide] | – | – | – | – | – | – | – | – | approximately six times stronger

Reference: US20260183302A1, “PDK1 REGULATORY COMPOUND AND COMPOSITION CONTAINING THE SAME” (PROVIBIO CO., LTD., priority 2024, published 2026)
